Our source for the Kd and ΔTm values is paper PMC7158045 (BMC Plant Biology, 2020).

Structures can show the parent of a compound that is named as a salt.

The target in experiment [1] is T1, ZmDRIK1 (DROUGHT RESPONSIVE INACTIVE KINASE 1), kinase domain (Zea mays, UniProt C0P4K9).
T1 construct: gene ZEAMMB73_Zm00001d028770; ZmDRIK1-KD R187-S514 (kinase domain)
T1 sequence (C0P4K9 187-514): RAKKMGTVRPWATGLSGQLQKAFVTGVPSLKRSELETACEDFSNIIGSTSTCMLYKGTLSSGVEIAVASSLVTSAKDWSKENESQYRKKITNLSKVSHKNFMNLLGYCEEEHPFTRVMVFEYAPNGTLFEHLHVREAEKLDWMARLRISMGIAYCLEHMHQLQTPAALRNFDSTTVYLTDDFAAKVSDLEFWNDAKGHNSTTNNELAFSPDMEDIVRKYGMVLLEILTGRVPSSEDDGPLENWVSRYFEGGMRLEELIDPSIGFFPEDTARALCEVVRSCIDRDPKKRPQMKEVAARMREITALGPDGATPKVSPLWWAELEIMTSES
Kind of experiment: ITC; cocrystal structure at […] Å; DSF (ΔTm > […] °C). Format: binding.

The target of the next experiment is T2, ZmDRIK1-R187-P492 (Zea mays, UniProt C0P4K9).
T2 construct: kinase domain, R187-P492
T2 sequence (C0P4K9 1-514): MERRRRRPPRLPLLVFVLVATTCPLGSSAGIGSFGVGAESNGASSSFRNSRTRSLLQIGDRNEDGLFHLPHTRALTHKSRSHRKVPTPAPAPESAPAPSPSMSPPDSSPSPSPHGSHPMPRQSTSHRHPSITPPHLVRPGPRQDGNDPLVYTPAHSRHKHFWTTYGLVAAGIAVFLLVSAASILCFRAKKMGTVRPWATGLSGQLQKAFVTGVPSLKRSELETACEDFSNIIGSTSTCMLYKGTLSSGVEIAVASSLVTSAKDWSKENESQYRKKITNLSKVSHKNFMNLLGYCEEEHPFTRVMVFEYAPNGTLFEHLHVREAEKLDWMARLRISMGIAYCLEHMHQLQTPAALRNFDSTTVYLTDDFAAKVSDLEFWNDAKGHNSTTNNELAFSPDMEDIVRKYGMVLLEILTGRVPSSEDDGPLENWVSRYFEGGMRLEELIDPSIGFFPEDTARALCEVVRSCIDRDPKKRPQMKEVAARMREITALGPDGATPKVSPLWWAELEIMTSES
Kind of experiment: biochemical. The settings on record: read-out: dTm B, DSF, Boltzmann fit, 0.1% DMSO.

The target in experiment [2] is T1, ZmDRIK1 (DROUGHT RESPONSIVE INACTIVE KINASE 1), kinase domain. Nature of the experiment: biochemical. The settings on record: read-out: dTm B, sheet ZmDRIK1-R187-S514;; DSF, Boltzmann fit, 0.1% DMSO.
The target of a further experiment is T3, ZmDRIK1-K217-S514 (Zea mays, UniProt C0P4K9).
T3 construct: kinase domain, K217-S514
T3 sequence (C0P4K9 1-514): T2 sequence (C0P4K9 1-514)
Nature of the experiment: biochemical. As to conditions: read-out: dTm B, sheet ZmDRIK1-K217-S514;; DSF, Boltzmann fit, 0.1% DMSO.

The target in the next experiment is T4, ZmDRIK1-K217-P492 (Zea mays, UniProt C0P4K9).
T4 construct: kinase domain, K217-P492
T4 sequence (C0P4K9 1-514): T2 sequence (C0P4K9 1-514)
Nature of the experiment: biochemical. As to conditions: read-out: dTm B, sheet ZmDRIK1-K217-P492;; DSF, Boltzmann fit, 0.1% DMSO.

Take `Cc1cc(Nc2cc(N3CCN(C)CC3)nc(/C=C/c3ccccc3)n2)n[nH]1` [ENMD-2076]: the equilibrium dissociation constant (Kd) in experiment [1] was found to be 0.551 µM. Moreover, the ΔTm at 10 µM at ZmDRIK1-R187-P492 was 4.32 °C; in experiment [2] it was 4.28 °C; on ZmDRIK1-K217-S514 it was 4.13 °C; at ZmDRIK1-K217-P492, 3.49 °C.

For `CN1CC[C@H](c2c(O)cc(O)c3c(=O)cc(-c4ccccc4Cl)oc23)[C@H](O)C1` [Flavopiridol HCl], the ΔTm at 10 µM is -0.272 °C on ZmDRIK1-R187-P492, -0.837 °C in experiment [2], -0.391 °C on ZmDRIK1-K217-S514 and -1.16 °C on ZmDRIK1-K217-P492.

For the molecule `NC(=O)Nc1cc(-c2cccc(F)c2)sc1C(=O)N[C@H]1CCCNC1` [AZD7762], the ΔTm at 10 µM is -0.167 °C at ZmDRIK1-R187-P492, -0.804 °C in experiment [2], -0.261 °C at ZmDRIK1-K217-S514 and -0.323 °C on ZmDRIK1-K217-P492.

For the molecule `Oc1ccc(Nc2nc(-c3ccc(Cl)cc3)cs2)cc1` [SKI II], the ΔTm at 10 µM on ZmDRIK1-R187-P492 was -2.86 °C; in experiment [2] it was 0.0373 °C; on ZmDRIK1-K217-S514, -1.52 °C; on ZmDRIK1-K217-P492, -0.22 °C.

For the molecule `COCC(=O)NC/C=C/c1ccc2ncnc(Nc3ccc(Oc4ccc(C)nc4)c(C)c3)c2c1` [CP-724714], the ΔTm at 10 µM at ZmDRIK1-R187-P492 was -0.193 °C; in experiment [2] it was -0.904 °C; on ZmDRIK1-K217-S514, -0.357 °C; at ZmDRIK1-K217-P492 it was -1.14 °C.

Consider `Oc1ccc2ccccc2c1SSc1c(O)ccc2ccccc12` [IPA-3], for which the ΔTm at 10 µM on ZmDRIK1-R187-P492 is -15.4 °C; in experiment [2], -20.6 °C; on ZmDRIK1-K217-S514 it was -15 °C; on ZmDRIK1-K217-P492, -15.1 °C.

Consider `CC(C)n1nc(-c2ccc3oc(N)nc3c2)c2c(N)ncnc21` [INK 128 (MLN0128)], for which the ΔTm at 10 µM is -0.315 °C at ZmDRIK1-R187-P492, -0.628 °C in experiment [2], -0.433 °C on ZmDRIK1-K217-S514 and -0.659 °C on ZmDRIK1-K217-P492.

Consider `O=C(Nc1ccc(-c2ccnc(Nc3ccc(N4CCOCC4)cc3)n2)cc1)C1CCCN1` (stereo not shown) [XL019], for which the ΔTm at 10 µM is -0.478 °C at ZmDRIK1-R187-P492, -0.481 °C in experiment [2], -0.368 °C at ZmDRIK1-K217-S514 and -0.95 °C on ZmDRIK1-K217-P492.

For `Cn1cc(-c2ccc3nnc(C(F)(F)c4ccc5ncccc5c4)n3n2)cn1` [JNJ-38877605], the ΔTm at 10 µM is -0.343 °C on ZmDRIK1-R187-P492, -0.758 °C in experiment [2], -0.499 °C at ZmDRIK1-K217-S514 and -1 °C at ZmDRIK1-K217-P492.

Turning to `O=C(NCc1ccccc1)c1csc(Nc2ccncn2)n1` [Thiazovivin], the ΔTm at 10 µM on ZmDRIK1-R187-P492 is -0.171 °C; in experiment [2], -0.845 °C; at ZmDRIK1-K217-S514, -0.368 °C; on ZmDRIK1-K217-P492, -0.879 °C.

Regarding `Cc1cc(C(C)Nc2ccccc2)c2nc(N3CCOCC3)cc(=O)n2c1` (stereo not shown) [TGX-221], the ΔTm at 10 µM was -0.136 °C at ZmDRIK1-R187-P492, -0.944 °C in experiment [2], -0.0845 °C at ZmDRIK1-K217-S514 and -0.973 °C on ZmDRIK1-K217-P492.

With `Cc1c(NC(=O)OC[C@@H]2COCCN2)cn2ncnc(Nc3ccc4c(cnn4Cc4cccc(F)c4)c3)c12` [AC480 (BMS-599626)], the ΔTm at 10 µM at ZmDRIK1-R187-P492 was -0.278 °C; in experiment [2] it was -0.997 °C; at ZmDRIK1-K217-S514, -0.265 °C; on ZmDRIK1-K217-P492, -0.766 °C.

For the molecule `Cn1cc(C2=C(c3ccc(Cl)cc3Cl)C(=O)NC2=O)c2ccccc21` [SB216763], the ΔTm at 10 µM at ZmDRIK1-R187-P492 is -0.115 °C; in experiment [2], -0.887 °C; on ZmDRIK1-K217-S514, -0.35 °C; at ZmDRIK1-K217-P492, -1.29 °C.

Turning to `Cc1ccc(S(=O)(=O)/C=C/C#N)cc1` [BAY 11-7082], the ΔTm at 10 µM on ZmDRIK1-R187-P492 is -1.15 °C; in experiment [2], -1.51 °C; at ZmDRIK1-K217-S514 it was -0.963 °C; on ZmDRIK1-K217-P492, -2.48 °C.

`CC(C)CCN1c2nc(Nc3cc(F)c(O)c(F)c3)ncc2N(C)C(=O)C1C` (stereo not shown) [BI-D1870]: the ΔTm at 10 µM on ZmDRIK1-R187-P492 is -0.479 °C; in experiment [2], -0.701 °C; at ZmDRIK1-K217-S514, -0.612 °C; on ZmDRIK1-K217-P492, -1.48 °C.

With `CS(=O)(=O)c1ccc(-c2cnc(N)c(C(=O)Nc3ccccc3)n2)cc1` [VE-821], the ΔTm at 10 µM at ZmDRIK1-R187-P492 was -0.26 °C; in experiment [2], -0.715 °C; on ZmDRIK1-K217-S514, -0.669 °C; on ZmDRIK1-K217-P492, -0.928 °C.

As for `COc1cc2ncnc(Nc3ccc(O)c(Br)c3)c2cc1OC` [WHI-P154], the ΔTm at 10 µM at ZmDRIK1-R187-P492 was found to be 1.76 °C; in experiment [2], 0.428 °C; at ZmDRIK1-K217-S514, 2.03 °C; on ZmDRIK1-K217-P492, 0.694 °C.

On to `C=CC(=O)Nc1cccc(Oc2nc(Nc3ccc(N4CCN(C)CC4)cc3)ncc2Cl)c1` [WZ3146], for which the ΔTm at 10 µM on ZmDRIK1-R187-P492 was -0.00788 °C; in experiment [2] it was -0.897 °C; on ZmDRIK1-K217-S514 it was -0.0548 °C; on ZmDRIK1-K217-P492, -0.696 °C.

`Cc1c(Cn2c(C)nc3c(C(=O)O)cc(N4CCOCC4)cc32)cccc1C(F)(F)F` [GSK2636771]: the ΔTm at 10 µM is -0.37 °C at ZmDRIK1-R187-P492, -0.589 °C in experiment [2], -0.699 °C on ZmDRIK1-K217-S514 and -0.98 °C on ZmDRIK1-K217-P492.

In the case of `COc1cccc(-c2cc(=O)c3ccccc3o2)c1N` [PD98059], the ΔTm at 10 µM was -0.0775 °C on ZmDRIK1-R187-P492, -1.1 °C in experiment [2], -0.33 °C on ZmDRIK1-K217-S514 and -1.13 °C at ZmDRIK1-K217-P492.

On to `C#Cc1cccc(Nc2ncnc3cc(OC)c(OCCCCCCC(=O)NO)cc23)c1` [CUDC-101], for which the ΔTm at 10 µM at ZmDRIK1-R187-P492 was -0.186 °C; in experiment [2] it was -0.684 °C; at ZmDRIK1-K217-S514, -0.263 °C; on ZmDRIK1-K217-P492, -1.03 °C.
